Here are results for 1 molecule from patent publication US12618112B2, “Epigenetic moderators of naltrexone efficacy in reducing heavy drinking in individuals diagnosed with alcohol use disorder” (MUSC Foundation for Research Development, priority 2021, dated 2026).

Assay [1] relates to treatment-seeking AUD patients. The assay can be described thus: 16-week randomized, placebo-controlled naltrexone trial; percent heavy drinking days (PHDD) by promoter/VNTR methylation subgroup. In kind it is in vivo, human. The note with it: for effect of naltrexone, relative to placebo, on PHDD: 16-week trial. The text has this: Overview. Detailed methods for the parent RCT, including a CONSORT diagram, are described in Anton et al, 2020 and Schacht et al, 2017. The Medical University of South Carolina Institutional Review Board approved all procedures, and all participants provided informed consent before participation. The study consisted of an initial assessment session, a baseline visit, and 9 follow-up visits over the course of a 16-week treatment period. Briefly, participants seeking AUD treatment were recruited from the community with media advertisements, assessed for inclusion/exclusion criteria, and genotyped for rs1799971. One of the aims of the parent RCT was to test the effect of rs1799971 genotype on naltrexone efficacy, so participants who carried the minor (G) allele were over-selected, such that these individuals ultimately comprised ˜50% of the 146 participants randomized to medication.
Participants. Participants were required to be ages 18-70; report heavy drinking (at least five/four standard drinks per day for men/women) on at least 50% of the days in the 90 days before assessment; and meet DSM-IV (Diagnostic and Statistical Manual of Mental Disorders, revised 4th edition) diagnostic criteria for Alcohol Dependence, as assessed by the Structured Clinical Interview for DSM-IV (First et al, 2002). Participants were also required to self-identify as Caucasian or Asian, secondary to low rs1799971 G-allele frequency among individuals of African descent; we previously reported that analysis of population allele frequencies for 50 SNPs included on the methylation assay used here indicated a high degree of correspondence between self-reported and SNP-identified ancestry. […] Exclusion criteria were: current psychotropic medication use other than antidepressants (for which a stable dose for at least one month was required); current DSM-IV Axis I diagnosis or suicidal/homicidal ideation; history of significant medical illness; liver enzyme (ALT or AST) levels>three times normal; and past-month naltrexone, disulfiram, or acamprosate use. Female participants could not be pregnant or nursing. The Table below lists demographic characteristics for the sample. Medication, randomization, and assessment. Participants were required to maintain abstinence for at least four days before medication randomization, and were then urn randomized (Stout et al, 1994) to receive naltrexone (25 mg for two days, then 50 mg thereafter) or placebo for 16 weeks. Randomization was stratified by rs1799971 genotype, with sex, smoking status (non-smoker vs. smoker, defined as ≥10 cigarettes per day), cocaine use, antidepressant use, and AUD family history balanced across medication groups. […] Participants and investigators were blind to genotype and medication assignment. After randomization, participants returned at weeks 1, 2, 3, 4, 6, 8, 10, 12, and 16 for medical management sessions, during which daily drinking since the last visit was assessed with the calendar-based Timeline Follow-back interview (Sobell and Sobell, 1992). Participants who dropped out after randomization were compensated to return at week 16 to provide missing drinking data. Forty participants ultimately dropped out, at similar rates across medication groups, but full drinking data were available on 89% of participants.
Methylation assay. Genomic DNA was quantitated using a Qubit Fluorometer (Thermo Fisher Scientific, Waltham, MA). An Infinium MethylationEPIC BeadChip (Illumina, San Diego, CA), which assays methylation at 866,895 cytosine residues, 99.7% of which are CpG sites, was used to generate a comprehensive genome-wide profile of DNA methylation. For each subject, 500 ng genomic DNA was bisulfate converted, denatured, and amplified, fragmented, resuspended, and hybridized to the BeadChips (eight samples per chip). […]

The subject of assay [2] is individuals with Alcohol Use Disorder. The note with it: cited from earlier work.
The mark [3] stands for this setting: month 3, high SLC6A3 promoter and low OPRM1 promoter methylation.

As to `O=C1CC[C@@]2(O)[C@H]3Cc4ccc(O)c5c4[C@@]2(CCN3CC2CC2)[C@H]1O5` [naltrexone], the “effect size (Cohen's d) for PHDD, naltrexone relative to placebo” value in assay [1] (across all study months, lower COMT promoter and lower OPRM1 promoter methylation) was found to be 0.85; in assay [1] (across all study months, lower SLC6A3 VNTR and lower OPRM1 promoter methylation), 1.25; in assay [1] (month 2, lower SLC6A3 promoter and lower OPRM1 promoter methylation), 0.61; in assay [1] (setting [3]) it was 0.98; in assay [1] (month 3, lower SLC6A3 promoter and lower OPRM1 promoter methylation), 0.62. Besides, the “mean difference between naltrexone and placebo in PHDD” value in assay [1] (across all study months, lower COMT promoter and lower OPRM1 promoter methylation (median split)) was 19.7 % HDD; in assay [1] (across all study months, lower SLC6A3 VNTR and lower OPRM1 promoter methylation (median split)) it was 28.5 % HDD; in assay [1] (month 2, lower SLC6A3 promoter and lower OPRM1 promoter methylation (median split), naltrexone 50 mg) it was 16.2 % HDD; in assay [1] (setting [3]) it was 25.7 % HDD; in assay [1] (month 3, lower SLC6A3 promoter and lower OPRM1 promoter methylation (median split)), 16.5 % HDD. In assay [1] (any time point, any other combination of SLC6A3 and OPRM1 promoter methylation (except high SLC6A3/low OPRM1)), the “simple effect of medication on PHDD” value is given as “not significant”. In assay [1] (lower methylation of OPRM1 and SLC6A3 or COMT promoters, relative to placebo and to higher methylation), the heavy drinking days entry is recorded as “significantly fewer heavy drinking days”. Besides, the “effect of naltrexone, relative to placebo, on PHDD” value in assay [1] (participants with lower COMT promoter and OPRM1 promoter methylation) is “reduced PHDD more”; in assay [1] (participants with lower SLC6A3 VNTR and OPRM1 promoter methylation), “reduced PHDD more”; in assay [1] (participants with lower SLC6A3 promoter and OPRM1 promoter methylation), “reduced PHDD more”. For the same molecule, in assay [1] (subgroups in which it was most effective), the “effect sizes for naltrexone, relative to placebo, on heavy drinking” value is recorded as 0.53-1.04. Further, the “overall effect of naltrexone on heavy drinking” value in assay [2] (across all AUD individuals (Maisel et al, 2013)) is “small”. Besides, the “effect on heavy drinking” value in assay [2] (individuals with AUD (Jonas et al., 2014a)) was “reduces heavy drinking”.
